Measurements from patent US20260209288A1, “PEPTIDES FOR REGULATING GLUCOSE” (Cooke Aquaculture Inc., priority 2019, published 2026).

What was measured:
L6 skeletal muscle cells = assay: Glucose uptake experiments in L6 skeletal muscle cells (2-deoxy-[3H]glucose); assay type: cell-based
Description: Glucose uptake experiments were conducted as described by Roblet 2013. L6 skeletal muscle cells were grown in an a-minimum essential medium (a-MEM) containing 2% (v/v) fetal bovine serum (GBS) in an atmosphere of 5% CO2 at 37° C. [Tremblay 2001]. Cells were plated at 600,000 cells/plate in 24-well plates to obtain about 25,000 cells/mL. The cells were incubated 7 days, to reach their complete differentiation to myotubes (7 days post-plating). L6 myotubes were deprived of GBS for 3 h, with a a-MEM containing 0% of GBS. Then, the cells were incubated for 75 minutes, with 10 μl of EDUF fractions at a concentration of 1 μg/mL and 1 ng/ml. Finally, insulin was added (10 μl at 1.10-5M) for 45 min. Experiments were repeated 9 times, and each repetition was run in triplicate. After experimental treatments, cells were rinsed once with 37° C. HEPES-buffered solution (20 mM HEPES, pH 7.4, 140 mM NaCl, 5 mM KCl, 2.5 mM MgSO4, and 1 mM CaCl2)) and were subsequently incubated in HEPES-buffered solution containing 10 µM 2-deoxyglucose and 0.3 μCi/mL 2-deoxy-[3H] glucose for 8 minutes. Then, the cells were rinsed three times with 0.9% NaCl solution at 4° C. and then frozen. The next day, the cells were disrupted by adding 500 μl of a 50 mM NaOH solution. The radioactivity was determined by scintillation.

FAO rat hepatocytes = assay: Hepatic glucose production experiments in FAO cells; assay type: cell-based
Description: Hepatic glucose production experiments were conducted as described by Chevrier et al, (2015). Briefly, FAO rat hepatocytes were grown and maintained in monolayer culture in Roswell Park Memorial Institute medium (RPMI) containing 10% FBS in an atmosphere of 5% CO2 at 37° C. Cells were plated at 4.10^6 cells/plate. […] […] Glucose production was measured in the medium by using the Amplex Red Glucose/Glucose Oxidase Assay kit (Invitrogen). Results shown are the mean response of at least 6 independent experiments realized in triplicate.

Substance	glucose uptake, dose-response effect (L6 skeletal muscle cells; IPVE at 1 ng/ml)	glucose uptake, dose-response effect (L6 skeletal muscle cells; IPVE at 10 ng/ml)	Bioactivity (L6 skeletal muscle cells; Table 1, identified peptides, glucose uptake)	nature of the glucose uptake response (L6 skeletal muscle cells; concentrations from 1 μg/mL to 10 μg/mL as printed)	glucose uptake, dose-response effect (L6 skeletal muscle cells; highest concentrations tested (>10 ng/ml))	enhancement of the glucose uptake (L6 skeletal muscle cells; in the presence of insulin, compared to the insulin control (P=0.016))	glucose uptake, dose-response effect (L6 skeletal muscle cells; lowest concentrations tested (<100 μg/mL))	Bioactivity (FAO rat hepatocytes; Table 1, identified peptides, hepatic glucose production)	decrease in HGP (hepatic glucose production) (FAO rat hepatocytes; basal condition)	decrease of the HGP (hepatic glucose production) (FAO rat hepatocytes; insulin condition: peptide incubated with insulin at 0.1 nm, compared to insulin at 0.1 nm)
IPVE: synthetic peptide of amino acid sequence IPVE, identified from salmon protein hydrolysate; increases glucose uptake	increase the bioactivity	increase the bioactivity	Increases glucose uptake	dose-dependent	no effect on the glucose uptake	17%	no effect on the glucose uptake	–	–	–
VAPEEHPTL	–	–	–	–	–	–	–	Decreases hepatic glucose production	20%	18%
